Laboratory results as given in patent US11873517B2, “Candida tropicalis strain having improved tolerance to the cytotoxicity of substrates, and method for producing dicarboxylic acid using same” (priority 2018, dated 2024).

System: Candida tropicalis MYA_3404 strain
Assay: toxicity test of substrates and product: growth of the strain in YNB medium
Conditions: 36 hours; for growth of the strain in the medium to which the substance was added, compared to the control: added at 5 g/L to YNB medium, 30° C., 200 rpm, FIG. 1

Structure (SMILES)	growth of the strain in the medium to which the substance was added, compared to the control	cytotoxicity compared to the sebacic acid (5 g/L in YNB medium)
CCCCCCCCCC(=O)O [DA, decanoic acid]	did not grow	
CCCCCCCCCC(=O)OC [DAME, decanoic acid methyl ester]	did not grow	stronger cytotoxicity
O=C(O)CCCCCCCCC(=O)O [sebacic acid]	the growth rate and the total cell mass of the strain decreased	
